Source: patent US9629817B2 (priority 2005, dated 2017)
Where two headings read alike, the source gives them in different places.

Test system: Pigs
Conditions: riluzole ip 8 mg/kg; for average number of episodes of sustained arrhythmias: VT or VF lasting more than 15 seconds
Protocol: Pigs of either sex and weighing between 20 and 35 kg were each anaesthetised with thiopentone sodium (10-15 mg/kg iv) and maintained under general anaesthesia with isoflurane (0.5-2% in oxygen). Artificial ventilation was maintained at a volume of 15 ml/kg and a rate of 12 breaths per minute. […] Subsequent to a mid-stemotomy and division of the pericardium, the left anterior coronary artery (LAD) was occluded mid-way along its length by permanent ligation.

[1] = first three hours post commencement of hypoxia
[2] = phase 2 (60-180 minutes post LAD occlusion)

For `Nc1nc2ccc(OC(F)(F)F)cc2s1` [riluzole, 2-amino-6-tritluoromethoxybenzothiazole], the “animals which developed any non-sustained arrhythmias” value [1] was 50%, the “animals which developed any sustained arrhythmias” value [1] was 50% and the “number of spontaneous PVCs (single), riluzole vs control group” value (phase 1a (first 15 minutes of hypoxia following LAD occlusion)) was “no significant difference”. The “average number of episodes of sustained arrhythmias” value (phase 1a) was 0.17 episodes per animal, the “fall in number of episodes of non-sustained arrhythmias vs control group” value (phase 1a) was 43% and the “fall in number of episodes of sustained arrhythmias vs control group” value (phase 1a) was 58%. For the same molecule, the “number of geminy beats (bigeminy, trigeminy and quadrigeminy) occurring spontaneously, riluzole vs control group” value (phase 1a) was “no significant”, the “number of multiple PVCs occurring spontaneously, riluzole vs control group” value (phase 1a) was “no significant difference” and the “number of spontaneous PVCs (single), riluzole vs control group” value (phase 1b (15-60 minutes post LAD occlusion)) was “no significant difference”. For the same molecule, the “average number of episodes of sustained arrhythmias” value (phase 1b) was 0.33 episodes per animal, the “fall in number of episodes of non-sustained arrhythmias vs control group” value (phase 1b) was 35% and the “fall in number of episodes of sustained arrhythmias vs control group” value (phase 1b) was 86%. The “number of geminy beats (bigeminy, trigeminy and quadrigeminy) occurring spontaneously, riluzole vs control group” value (phase 1b) was “no significant”, the “number of multiple PVCs occurring spontaneously, riluzole vs control group” value (phase 1b) was “no significant difference” and the “average number of PVCs (single)” value [2] was 17. For the same molecule, the “drop in average number of PVCs (single) vs control group” value [2] was 91%, the “average number of episodes of sustained arrhythmias” value (phase 2) was 0.33 episodes per animal and the “average number of geminy beats” value (phase 2) was 0. The “average number of multiple PVCs” value (phase 2) was 7, the “drop in average number of geminy beats vs control group” value (phase 2) was 100% and the “drop in average number of multiple PVCs vs control group” value (phase 2) was 93%. The “fall in number of episodes of non-sustained arrhythmias vs control group” value (phase 2) was 92% and the “fall in number of episodes of sustained arrhythmias vs control group” value (phase 2) was 90%.
